In patent US12503453B2, “USP7 inhibition” (Dana-Farber Cancer Institute, Inc., priority 2018, dated 2025):
Like-named read-outs stand apart in the source and are kept apart here. Each block holds one molecule with its values, some of them ahead of it.

Legend:
full length USP7 = full length USP7 (Homo sapiens (Human), UniProt Q93009); assay: Ub-AMC enzymatic assay with full-length USP7; assay type: biochemical; conditions: for IC50: 6 hours pre-incubation, Ub-AMC
Description: Both constructs were overexpressed in E. coli BL21 (DE3). Cells were grown at 37° C. to an OD of 0.9, cooled to 16° C., induced with 500 μM isopropyl-1-thio-D-galactopyranoside (IPTG), incubated overnight at 16° C., collected by centrifugation, and stored at −80° C. Cell pellets were sonicated in lysis buffer (25 mM Tris pH 8, 1 M NaCl, and 10 mM BME) supplemented with 10 μg/ml phenylmethanesulfonylfluoride (PMSF) and the resulting lysate was centrifuged at 30,000×g for 40 min. Ni-NTA beads (Qiagen) were mixed with lysate supernatant for 2 hours, and washed with lysis buffer supplemented with 25 mM imidazole. The bound protein was eluted with lysis buffer supplemented with 300 mM imidazole. The sample was then concentrated to 1 ml (30 kDa concentrator; Amicon Ultra, Millipore), and run on a Superdex 200 (GE healthcare) in buffer containing 25 mM HEPES pH 7.5, 200 mM NaCl, and 1 mM DTT. Fractions were pooled, concentrated and frozen at −80° C.
Full length USP7 was tested for its activity in Ubiquitin-AMC assay in presence or absence of inhibitors. USP7 (5 nM) was pre-incubated for 6 hours at room temperature with different concentrations of inhibitors or DMSO as a control in 50 mM HEPES pH 7.5, 0.5 mM EDTA, 11 μM ovalbumin, and 5 mM DTT. Ubiquitin-AMC (Boston Biochem) was then added to a final concentration of 500 nM. The initial rate of the reaction was measured by collecting fluorescence data at one minute intervals over 30-minute period using a Clariostar fluorescence plate reader at excitation and emission wavelength of 345 and 445 nm respectively. The calculated initial rate values were plotted against inhibitor concentrations to determine IC50s. All the experimental data were plotted using Prism GraphPad. All assays for each compound were performed at least twice for each compound.

[1] = tested on: Ewing sarcoma cell lines, TP53 WT and mutant; assay: Cell proliferation (CellTiter-Glo), panel of Ewing sarcoma cell lines; assay type: cell-based; conditions: same set of cell lines
Description: Cells were plated in 384-well culture-treated plates and allowed to settle overnight. After drug treatment and appropriate incubation time, cell viability was assessed using the CellTiter-Glo Luminescent Cell Viability Assay (Promega). Luminescence was read on a Fluostar Omega Reader (BMG Labtech).

MCF7 cells [2] = assay: Drug synergy analysis (Chou-Talalay combination index), MCF7; assay type: cell-based
Text: (§1) Loewe Additivity is a dose-effect approach that estimates the effect of combining two drugs based on the concentration of each individual drug that produces the same quantitative effect (Goldoni and Johansson, 2007). […] They introduced the combination index (CI) scores to estimate the interaction between the two drugs. If CI<1, the drugs have a synergistic effect, and if CI>1, the drugs have an antagonistic effect. CI=1 means the drugs have an additive effect.

TC32 cells = assay: Drug synergy analysis (Chou-Talalay combination index), TC32; assay type: cell-based
Text: as §1, with “drugs.” for “drugs. If CI<1, the drugs have a synergistic effect, and if CI>1, the drugs have an antagonistic effect. CI=1 means the drugs have an additive effect.”

MCF7 cells [3] = assay: Cell cycle analysis by propidium iodide staining; assay type: cell-based; conditions: 1 μM, 24 hours
Description: For propidium iodide (PI) staining, treated cells (˜1 million per condition) were washed with cold PBS, then fixed in 80% ethanol overnight at −20° C. After fixing, cells were pelleted, washed with PBS, and reconstituted in 500 μL FxCycle PI/RNAse A staining solution (Thermo Fisher). Cells were stored overnight at 4° C. and analyzed using a BD Fortessa flow cytometer.

[4] = tested on: MDM2-p53 signaling axis in MCF7 cells; assay: Whole cell lysate Western blots of MCF7 cells (MDM2-p53 signaling axis); assay type: cell-based; conditions: wild-type TP53
MCF7 cells [5] = assay: Transcriptome profiling, 3' Digital Gene Expression RNA-seq; assay type: cell-based; conditions: 24 hours, low or high doses
Text: Overall, transcripts were detected for 7000-10,000 genes (7276 genes detected across all conditions).
The same report had also identified a set of dimerization partner, Retinoblastoma-like, E2F and multi-vulval class B (DREAM) complex target genes by combining p53 repression data (generated in part with Nutlin-3A-treated MCF7 cells) with cell cycle expression and DREAM component binding.

USP7 catalytic domain = USP7 catalytic domain (Homo sapiens (Human), UniProt Q93009); assay: MS labeling of purified USP7 catalytic domain (intact MS, CE-MS); assay type: binding; conditions: 15 minutes incubation
Description: Purified USP7 catalytic domain was diluted to 20 μM in 10 μL labeling buffer (20 mM HEPES pH 7.5, 150 mM NaCl, 1 mM TCEP) and incubated for the indicated times with 50 μM (2.5×) compound. After incubation, samples were flash frozen in liquid nitrogen and stored at −80° C. until analysis.
Intact mass analysis was performed by injecting 5 μg USP7 catalytic domain onto a self-packed reversed phase column ( 1/32″ O.D.×500 um I.D., 5 cm of POROS 10R2 resin). After desalting, protein was eluted with an HPLC gradient (0-100% B in 4 minutes, A=0.2M acetic acid in water, B=0.2 M acetic acid in acetonitrile, flow rate ˜30 μL/min) into an LTQ ion trap mass spectrometer (ThermoFisher Scientific, San Jose, CA). Mass spectra were deconvoluted using MagTran1.03b2 software. Zhang, Z. & Marshall, A. G. A universal algorithm for fast and automated charge state deconvolution of electrospray mass-to-charge ratio spectra. J. Am. Soc. Mass Spectrom. 9, 225-233 (1998).
To identify sites of covalent modification, treated protein was reduced (10 mM dithiothreitol), alkylated (22.5 mM iodoacetamide), and digested with trypsin overnight at 37° C. Peptides were desalted using SP3 (Hughes, C. S. et al. Ultrasensitive proteome analysis using paramagnetic bead technology. Mol. Syst. Biol. 10, 757-757 (2014)), dried by vacuum centrifugation, and reconstituted in 1% formic acid/50% acetonitrile with 100 mM ammonium acetate. Peptides were then analyzed by CE-MS using a ZipChip CE system and autosampler (908 Devices, Boston, MA) interfaced to a QExactive HF mass spectrometer (ThermoFisher Scientific, San Jose, CA). Peptide solution was loaded for 30 seconds, and the mass spectrometer was operated in data dependent mode and subjected the 5 most abundant ions in each MS scan (60 k resolution, 3E6 target, lock mass enabled) to MS/MS (15 k resolution, 1E5 target, 100 ms max inject time). Dynamic exclusion was enabled with a repeat count of 1 and an exclusion time of 6 seconds. […]

[6] = Table 3, read-out: IC50 (μM), USP7 activity in USP7 assay
[7] = Table 1, read-out: IC50 (nM), USP7 activity in USP7 assay

Sequence of full length USP7 (Q93009 whole entry): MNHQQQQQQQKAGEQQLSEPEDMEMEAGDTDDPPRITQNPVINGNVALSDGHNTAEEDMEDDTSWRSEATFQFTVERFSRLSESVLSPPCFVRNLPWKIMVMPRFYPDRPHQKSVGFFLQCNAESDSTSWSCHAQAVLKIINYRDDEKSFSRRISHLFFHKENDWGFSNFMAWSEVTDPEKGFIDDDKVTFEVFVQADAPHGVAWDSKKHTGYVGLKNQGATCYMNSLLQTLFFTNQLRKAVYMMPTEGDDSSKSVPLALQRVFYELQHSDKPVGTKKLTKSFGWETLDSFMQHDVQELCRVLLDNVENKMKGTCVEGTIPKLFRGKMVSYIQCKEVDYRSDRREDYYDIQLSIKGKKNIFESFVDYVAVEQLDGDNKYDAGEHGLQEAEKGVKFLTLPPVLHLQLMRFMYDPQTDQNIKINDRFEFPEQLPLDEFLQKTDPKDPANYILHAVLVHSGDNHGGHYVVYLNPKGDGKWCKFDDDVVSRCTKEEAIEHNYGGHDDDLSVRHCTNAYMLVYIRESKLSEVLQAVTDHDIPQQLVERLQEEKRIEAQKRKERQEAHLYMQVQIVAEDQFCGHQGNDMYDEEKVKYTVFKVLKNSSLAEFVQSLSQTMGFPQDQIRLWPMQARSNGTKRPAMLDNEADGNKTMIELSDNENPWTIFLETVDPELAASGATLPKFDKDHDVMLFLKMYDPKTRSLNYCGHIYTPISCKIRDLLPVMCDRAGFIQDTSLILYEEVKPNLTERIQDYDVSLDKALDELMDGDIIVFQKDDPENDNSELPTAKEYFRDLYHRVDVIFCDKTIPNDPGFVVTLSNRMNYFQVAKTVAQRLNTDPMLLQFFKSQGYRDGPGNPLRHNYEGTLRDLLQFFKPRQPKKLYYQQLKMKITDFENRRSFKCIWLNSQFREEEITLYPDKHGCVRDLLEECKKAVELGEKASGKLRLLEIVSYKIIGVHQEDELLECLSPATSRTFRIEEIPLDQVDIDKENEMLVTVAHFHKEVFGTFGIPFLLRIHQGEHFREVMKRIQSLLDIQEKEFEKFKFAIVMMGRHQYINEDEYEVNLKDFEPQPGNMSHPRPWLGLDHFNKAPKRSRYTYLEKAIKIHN
Sequence of USP7 catalytic domain (Q93009 208-560): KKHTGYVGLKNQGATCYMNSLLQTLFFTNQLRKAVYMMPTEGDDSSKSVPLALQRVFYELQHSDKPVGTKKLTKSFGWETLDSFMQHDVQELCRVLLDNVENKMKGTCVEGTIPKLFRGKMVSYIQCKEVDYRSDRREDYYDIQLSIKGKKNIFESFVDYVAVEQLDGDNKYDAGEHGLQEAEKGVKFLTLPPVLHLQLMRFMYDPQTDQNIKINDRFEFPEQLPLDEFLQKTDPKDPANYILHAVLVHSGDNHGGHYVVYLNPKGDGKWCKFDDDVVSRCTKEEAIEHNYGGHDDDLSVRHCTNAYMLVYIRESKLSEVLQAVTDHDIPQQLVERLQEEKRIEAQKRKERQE

SMILES: O=C(CCN1CCOCC1)Nc1ccc2c(=O)n(CC3(O)CCN(C(=O)[C@H](Cc4ccccc4)NC(=O)COc4ccc5c(Cl)c6c(nc5c4)CCCC6)CC3)cnc2c1
IC50 (full length USP7; [6]): 0.1 to 1 µM

SMILES: O=C(CCN1CCOCC1)Nc1ccc2c(=O)n(CC3(O)CCN(C(=O)C(CCCNC(=O)c4ccc5c(Cl)c6c(nc5c4)CCCC6)Cc4ccc(F)c(C(F)(F)F)c4)CC3)cnc2c1 (stereo not shown)
IC50 (full length USP7; [6]): 0.02 to 0.1 µM

SMILES: O=C(CCN1CCOCC1)Nc1ccc2c(=O)n(CC3(O)CCN(C(=O)C(CCCNC(=O)c4ccc5c(Cl)c6c(nc5c4)CCCC6)Cc4ccc(F)cc4F)CC3)cnc2c1 (stereo not shown)
IC50 (full length USP7; [6]): 0.02 to 0.1 µM

SMILES: CCc1c(-c2ccc3[nH]ncc3c2)cnc(N)c1-c1ccc(O)cc1 [GNE6640]
specificity for TP53-WT expressing cells [1]: little to no specificity for TP53-WT expressing cells

SMILES: Cc1ncc(Cl)cc1NCc1ccc(C(=O)N[C@@H](CC2CCCC2)C(=O)NC2CC2)s1 [GSK2830371]
interaction in combination with compound 6 (MCF7 cells [2]): mixed synergy and antagonism
combination index with compound 6 (TC32 cells): < 0.6

SMILES: COc1cc(C(=O)O)ccc1NC(=O)[C@@H]1N[C@@H](CC(C)(C)C)[C@](C#N)(c2ccc(Cl)cc2F)[C@H]1c1cccc(Cl)c1F [RG7388]
combination index with compound 6 (TC32 cells): < 0.6

SMILES: CN1CCN(CCC(=O)Nc2ccc3c(=O)n(CC4(O)CCN(C(=O)[C@H](CCCNC(=O)c5ccc6c(Cl)c7c(nc6c5)CCCC7)Cc5ccccc5)CC4)cnc3c2)CC1 [compound 7, (R)-N-(4-benzyl-5-(4-hydroxy-4-((7-(3-(4-methylpiperazin-1-yl)propanamido)-4-oxoquinazolin-3(4H)-yl)methyl)piperidin-1-yl)-5-oxopentyl)-9-chloro-5,6,7,8-tetrahydroacridine-3-carboxamide]
cell cycle effect (MCF7 cells [3]): did not exert any of the same effects
MDM2 protein level [4]: did not exert any of the same effects
transcriptional profile (MCF7 cells [5]): highly correlated with the vehicle (DMSO)-treated control cells

SMILES: COc1cccc2c1C(=O)c1c(O)c3c(c(O)c1C2=O)C[C@@](O)(C(=O)CO)C[C@@H]3O[C@H]1C[C@H](N)[C@H](O)[C@H](C)O1 [doxorubicin]
interaction in combination with compound 6 (MCF7 cells [2]): mixed synergy and antagonism
combination index with compound 6 (TC32 cells): < 0.6

SMILES: COc1cc([C@@H]2c3cc4c(cc3[C@@H](O[C@@H]3O[C@@H]5CO[C@@H](C)O[C@H]5[C@H](O)[C@H]3O)[C@H]3COC(=O)[C@H]23)OCO4)cc(OC)c1O [etoposide]
interaction in combination with compound 6 (MCF7 cells [2]): mixed synergy and antagonism

Now from value to molecule, other results behind:

IC50 (full length USP7; [6]): 0.02 to 0.1 µM
SMILES: CN1CCN(c2cccc3c(=O)n(CC4(O)CCN(C(=O)[C@@H](CCCNC(=O)c5ccc6c(Cl)c7c(nc6c5)CCCC7)Cc5ccccc5)CC4)cnc23)CC1

IC50 (full length USP7; [6]): 0.02 to 0.1 µM
SMILES: O=C(NCCC[C@@H](Cc1ccccc1)C(=O)N1CCC(O)(Cn2cnc3c(N4CCOCC4)cccc3c2=O)CC1)c1ccc2c(Cl)c3c(nc2c1)CCCC3

USP7 inhibitory activity (full length USP7; purified enzyme and native USP7): retained USP7 inhibitory activity
SMILES: C[C@@H]1NC(=O)N[C@@H]1CCCCCC(=O)NCCOCCOCCOCCC(=O)N1CCN(CC(=O)Nc2ccc3c(=O)n(CC4(O)CCN(C(=O)CCCCNC(=O)c5ccc6c(Cl)c7c(nc6c5)CCCC7)CC4)cnc3c2)CC1 [compound 6-DTB, 9-chloro-N-(5-(4-hydroxy-4-((7-(2-(4-(19-((4R,5S)-5-methyl-2-oxoimidazolidin-4-yl)-14-oxo-4,7,10-trioxa-13-azanonadecanoyl)piperazin-1-yl)acetamido)-4-oxoquinazolin-3(4H)-yl)methyl)piperidin-1-yl)-5-oxopentyl)-5,6,7,8-tetrahydroacridine-3-carboxamide]

IC50 against USP7 (range in words) (full length USP7; full-length USP7, Ub-AMC): nanomolar range
SMILES: CN1CCN(CCC(=O)Nc2ccc3c(=O)n(CC4(O)CCN(C(=O)C(CCCNC(=O)c5ccc6cc7c(nc6c5)CCCC7)Cc5ccccc5)CC4)cnc3c2)CC1 (stereo not shown) [compound 40, N-(4-benzyl-5-(4-hydroxy-4-((7-(3-(4-methylpiperazin-1-yl)propanamido)-4-oxoquinazolin-3(4H)-yl)methyl)piperidin-1-yl)-5-oxopentyl)-5,6,7,8-tetrahydroacridine-3-carboxamide]
labeling of USP7 catalytic domain by MS (USP7 catalytic domain): unable to label the USP7 catalytic domain

IC50 (full length USP7; [7]): 0.02 to 0.1 µM
SMILES: CN1CCN(CCC(=O)Nc2ccc3c(=O)n(CC4(O)CCN(C(=O)CCCCNC(=O)c5ccc6c(Cl)c7c(nc6c5)CCCC7)CC4)cnc3c2)CC1 [drawing 141]

IC50 (full length USP7; [7]): < 0.02 µM
SMILES: CN1CCN(CCC(=O)Nc2ccc3c(=O)n(CC4(O)CCN(C(=O)[C@@H](CCCNC(=O)c5ccc6c(Cl)c7c(nc6c5)CCCC7)Cc5ccccc5)CC4)cnc3c2)CC1 [drawing 146]

IC50 (full length USP7; [7]): 0.1 to 1 µM
SMILES: CN1CCN(CCC(=O)Nc2ccc3c(=O)n(CC4(O)CCN(C(=O)[C@H](CCCNC(=O)c5ccc6c(Cl)c7c(nc6c5)CCCC7)Cc5ccccc5)CC4)cnc3c2)CC1 [drawing 147]

IC50 (full length USP7; Table 2, read-out: IC50 (μM), USP7 activity in USP7 assay): 0.1 to 1 µM
SMILES: CN1CCN(CCC(=O)Nc2ccc3c(=O)n(CC4(O)CCN(C(=O)C(CCCNC(=O)c5ccc6cc7c(nc6c5)CCCC7)Cc5ccccc5)CC4)cnc3c2)CC1 (stereo not shown) [drawing 180]
